3 molecules from ChEMBL document CHEMBL3046224, “Synthesis of novel 2-phenylsulfonylhydrazono-3-(2',3',4',6'-tetra-O-acetyl-beta-d-glucopyranosyl)thiazolidine-4-ones from thiosemicarbazide precursors” (2006) can be followed below.

What all share (format): functional
What all share (conditions): read-out: GI

The subject of one assay is Phomopsis asparagi. The assay can be described thus: Fungicidal activity against Phomopsis asparagi assessed as growth inhibition at 50 ppm relative to control.
Assay [1] deals with Botryosphaeria berengeriana. Description: Fungicidal activity against Botryosphaeria berengeriana assessed as growth inhibition at 50 ppm relative to control.
For assay [2], the system named is Brassica rapa subsp. oleifera. Description: Herbicidal activity against Brassica rapa subsp. oleifera assessed as growth inhibition at 1.5 kg/ha applied to soil relative to control.

With `CC(=O)OC[C@H]1O[C@@H](NC(=S)NNS(=O)(=O)c2ccc(C)cc2)[C@H](OC(C)=O)[C@@H](OC(C)=O)[C@@H]1OC(C)=O`, the inhibition of growth at 50 ppm (in the assay with Phomopsis asparagi; in assay [1]) was 30% throughout.

On to `CC(=O)OC[C@H]1O[C@@H](N2C(=O)CS/C2=N\NS(=O)(=O)c2ccc(C)cc2)[C@H](OC(C)=O)[C@@H](OC(C)=O)[C@@H]1OC(C)=O`, for which the inhibition of growth at 1500 g/ha in assay [2] was 39.8%. For the same molecule, the inhibition of growth at 50 ppm (in the assay with Phomopsis asparagi; in assay [1]) was 30% throughout.

For the molecule `CC(=O)O[C@@H]1[C@@H](OC(C)=O)[C@H](OC(C)=O)CO[C@H]1NC(=S)NNS(=O)(=O)c1ccccc1`, the inhibition of growth at 50 ppm (in the assay with Phomopsis asparagi; in assay [1]) was 30% throughout.
